This is an account of results in publication PMC8757608 (Journal of Enzyme Inhibition and Medicinal Chemistry, 2022).

One test deals with DU-145 cells. The experiment in a line: Annexin V-FITC apoptosis assay, DU-145. Type of test: cell-based, human. To be noted: DU-145 cells exposed to IC50, 24 h; for percent of annexin V-FITC positive apoptotic cells (UR + LR): vehicle control 1.7%.
The next test relates to MCF-7 cells. The experiment in a line: Annexin V-FITC apoptosis assay, MCF-7. Type of test: cell-based, human. As to conditions: MCF-7 cells exposed to IC50, 24 h; for percentage of annexin V-FITC positive apoptotic cells (UR + LR): vehicle control 2.0%.
The test system of another test is DU-145 cell lines. The test can be described thus: DNA-flow cytometry cell cycle analysis, DU-145. Type of test: cell-based, human. As to conditions: DU-145, 24 h at IC50.
The subject of a further test is full NCI 60-cell panel. The experiment in a line: NCI-60 single dose screen, statements over several cell lines. Type of test: cell-based, human. To be noted: for inhibition at 10 µM: Homo sapiens.
For test [1], the system named is NCI-H522 (non-small cell lung cancer). The experiment in a line: NCI-60 single dose screen, NCI-H522. Type of test: cell-based. As to conditions: Homo sapiens, NCI-H522, read-out: inhibitory activity (cell growth inhibition).
Another test concerns MCF7 cell lines. The test can be described thus: DNA-flow cytometry cell cycle analysis, MCF7. Type of test: cell-based, human. To be noted: MCF7, 24 h at IC50.
Test [2] relates to MCF-7 breast cancer cell line. The test can be described thus: MTT assay for cell viability, MCF7. Type of test: cell-based. As to conditions: Homo sapiens, MCF7, read-out: Cytotoxicity IC50 (µM ± SE) MCF7, MTT assay, MCF7.
In a further test the test system is DU-145 (prostate cancer). The test can be described thus: NCI-60 single dose screen, DU-145. As to conditions: Homo sapiens, DU-145, read-out: percent growth inhibition. Type of test: cell-based.
The subject of the next test is MCF7 (breast cancer). The experiment in a line: NCI-60 single dose screen, MCF7. Type of test: cell-based. As to conditions: Homo sapiens, MCF7, read-out: percent growth inhibition.
For a further test, the system named is LOX IMVI (melanoma). The experiment in a line: NCI-60 single dose screen, LOX IMVI. To be noted: Homo sapiens, read-out: percent growth inhibition. Type of test: cell-based.
The next test concerns SR (leukemia). The test can be described thus: NCI-60 single dose screen, SR. Type of test: cell-based. As to conditions: Homo sapiens, read-out: percent growth inhibition.
In a further test the test system is IGROV1 (ovarian cancer). The test can be described thus: NCI-60 single dose screen, IGROV1. As to conditions: Homo sapiens, IGROV-1, read-out: percent growth inhibition. Type of test: cell-based.
Setting [3] is: 60 cell, read-out: cell growth inhibition.

Read-outs that look alike come from different tables or passages of the source.

In the case of `O=C1NC(c2ccccc2)(c2ccccc2)C(=O)N1Cc1cn(-c2c3ccccc3nc3ccccc23)nn1` [Compound 10, 3-((1-(Acridin-9-yl)-1H-1,2,3-triazol-4-yl)methyl)-5,5-diphenylimidazolidine-2,4-dione], in the test on DU-145 cells, the “rise of annexin V-FITC positive apoptotic cells compared with vehicle control” value turned out to be 2 fold and the “percent of annexin V-FITC positive apoptotic cells (UR + LR)” value was determined as 3.6%. Moreover, in the test with MCF-7 cells, the “increase of annexin V-FITC positive apoptotic cells compared with vehicle control” value (“increase” below) was 5.3 fold and the “percentage of annexin V-FITC positive apoptotic cells (UR + LR)” value (from here on “percentage”) is reported as 10.7%. For the same molecule, in the test on DU-145 cell lines, the “%G1” value was 42.9% and the “%G2/M” value came to 20.9%. For the same molecule, the inhibition at 10 µM in the test with full NCI 60-cell panel (setting [3]) lay in the range of 61 to 97%. For the same molecule, in the test with full NCI 60-cell panel (read-out: cell growth inhibition percent), the inhibition at 10 µM lay within 60.8 to 68.6%. The inhibition at 10 µM in test [1] was determined as 84.1%. Moreover, in the test on MCF7 cell lines, the “%G1” value was determined as 43.5%, the “%G2/M” value is recorded as 15.3% and the “%Pre-G1” value amounted to 13.2%.

As for `COc1cccc2c1C(=O)c1c(O)c3c(c(O)c1C2=O)C[C@@](O)(C(=O)CO)C[C@@H]3O[C@H]1C[C@H](N)[C@H](O)[C@H](C)O1` [Doxorubicin], the IC50 in test [2] was 2 µM.

In the case of `Cc1cc(=O)[nH]c(=O)n1Cc1cn(-c2c3ccccc3nc3ccccc23)nn1` [Compound 8, 1-((1-(Acridin-9-yl)-1H-1,2,3-triazol-4-yl)methyl)-6-methylpyrimidine-2,4(1H,3H)-dione], the “rise of annexin V-FITC positive apoptotic cells compared with vehicle control” value with DU-145 cells was “sixfold”. In addition, the “percent of annexin V-FITC positive apoptotic cells (UR + LR)” value in the test on DU-145 cells is 10.2%. The inhibition at 10 µM in the test on DU-145 (prostate cancer) was 84.3%; with MCF7 (breast cancer), 97.5%; with LOX IMVI (melanoma), 84.8%; in the test on SR (leukemia), 88.6%; in the test with IGROV1 (ovarian cancer), 67%; with full NCI 60-cell panel (setting [3]) it was 61 to 97%. Moreover, the “increase” value in the test on MCF-7 cells is 10 fold. Further, the “percentage” value in the test on MCF-7 cells amounted to 20.3%. The “%G1” value in the test on DU-145 cell lines is 34.6%; in the test with MCF7 cell lines it was 24.4%. In addition, the figures for the “%G2/M” value in the test on DU-145 cell lines and with MCF7 cell lines were 39.6% and 48.3%, respectively. The “%Pre-G1” value in the test with DU-145 cell lines is listed as 12.9%; with MCF7 cell lines it was 24.4%.

In the case of `CCCC(CCC)C(=O)OCc1cn(-c2c3ccccc3nc3ccccc23)nn1` [Compound 12, 1-(1-(Acridin-9-yl)-1H-1,2,3-triazol-4-yl)methyl valproate], in the test with full NCI 60-cell panel (against all cancer cell lines, single dose of 10 μM), the “cell growth inhibition (in words)” value is listed as “either low or complete absence of cell growth inhibition”.

Turning to `O=c1ccn(Cc2cn(-c3c4ccccc4nc4ccccc34)nn2)c(=O)[nH]1` [Compound 9, 1-((1-(Acridin-9-yl)-1H-1,2,3-triazol-4-yl)methyl)pyrimidine-2,4(1H,3H)–dione], in the test with MCF-7 cells, the “increase” value turned out to be 6.4 fold and the “percentage” value is 13%. Moreover, in the test on DU-145 cell lines, the “%G1” value is listed as 41.5% and the “%G2/M” value came to 29.1%. The inhibition at 10 µM in the test with full NCI 60-cell panel (setting [3]) was 61 to 97%. The inhibition at 10 µM in the test on full NCI 60-cell panel (read-out: cell growth inhibition) was in the range of 61.3 to 67%. Further, in the test on MCF7 cell lines, the “%G2/M” value turned out to be 39.8%.
